Results published in article PMC9967275, “Screening the Pathogen Box to Discover and Characterize New Cruzain and TbrCatL Inhibitors” (Pathogens, 2023).

Key:
TbrCatL = target: T1, TbrCatL (Trypanosoma brucei rhodesiense, UniProt Q95PM0); test: TbrCatL enzymatic inhibition assay (cleavage of fluorogenic substrate Z-FR-AMC); format: biochemical; conditions: for TbrCatL 0’ Inhibition / TbrCatL 10’ Inhibition: sheet "Screening results"
T1 construct: Conor Caffrey (University of California San Diego)
T1 sequence (Q95PM0 entry or part of it): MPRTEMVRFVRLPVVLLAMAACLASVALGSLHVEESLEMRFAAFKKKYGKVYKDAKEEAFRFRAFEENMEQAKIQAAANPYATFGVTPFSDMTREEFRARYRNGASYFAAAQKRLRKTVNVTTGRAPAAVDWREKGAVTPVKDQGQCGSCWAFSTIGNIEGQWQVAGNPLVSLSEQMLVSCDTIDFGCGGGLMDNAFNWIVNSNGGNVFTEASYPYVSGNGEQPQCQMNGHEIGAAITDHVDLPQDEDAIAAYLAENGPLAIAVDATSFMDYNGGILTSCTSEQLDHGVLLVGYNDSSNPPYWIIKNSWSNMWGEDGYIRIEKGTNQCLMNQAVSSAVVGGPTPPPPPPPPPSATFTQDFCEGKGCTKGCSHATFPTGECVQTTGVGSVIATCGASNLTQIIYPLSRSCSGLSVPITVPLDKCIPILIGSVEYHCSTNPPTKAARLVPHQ
Method in brief: (§1)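 Recombinant enzymes assayed by Z-Phe-Arg-AMC cleavage at 25 °C, fluorescence 340/440 nm over 5–7 min, with 10 min or no enzyme–compound preincubation.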

cruzain = cruzain (Trypanosoma cruzi, UniProt P25779); test: biochemical; conditions: for Cruzain 0’ Inhibition / Cruzain 10’ Inhibition: sheet "Screening results"
Chain of cruzain (P25779 123-337 limits assumed): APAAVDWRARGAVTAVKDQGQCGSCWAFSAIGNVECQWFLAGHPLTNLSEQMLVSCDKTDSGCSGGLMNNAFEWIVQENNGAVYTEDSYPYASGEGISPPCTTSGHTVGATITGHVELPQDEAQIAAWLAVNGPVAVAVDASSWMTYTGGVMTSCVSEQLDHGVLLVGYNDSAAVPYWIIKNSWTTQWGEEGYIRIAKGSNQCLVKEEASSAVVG
Method in brief: as §1

[1] = 0’ (no pre-incubation), sheet Screening results
[2] = 10’ (pre-incubation), sheet Screening results
[3] = 0’ (pre-incubation time), Pathogen Box screening results
[4] = 10’ (pre-incubation time), Pathogen Box screening results
[5] = 5 µM, PB library solutions, 10 min pre-incubation, vs DMSO control

Row | SMILES | TbrCatL Inhibition 0’ (TbrCatL; [1]) | TbrCatL Inhibition 10’ (TbrCatL; [2]) | Cruzain Inhibition 0’ (cruzain; [1]) | Cruzain Inhibition 10’ (cruzain; [2]) | other results
1 | Cc1ccc(NC(=O)CC2COc3ccccc3O2)cc1Cl (centres unmarked) [MMV676431] | 5% | 5% | 0.5% | 4.3% | –
2 | Cc1ccc2nc(Cl)c(CNCc3cccs3)cc2c1 [MMV676439] | 5.4% | 5% | -0.1% | 6.5% | –
3 | CC(C)c1ncc(-c2ccncc2)c(C2CCC(CNC(=O)c3cccnc3)CC2)n1 (centres unmarked) [MMV676442] | -7.5% | -6% | 4% | 1.2% | –
4 | O=C(NC1CCCCC1)N1CCN(Cc2ccc3c(c2)OCO3)CC1 [MMV676444] | 9% | 8% | 0.4% | 5.5% | –
5 | CCCn1c(CNc2ccccc2O)nc2ccccc21 [MMV676445] | 6% | 3.3% | 1.2% | 3.6% | –
6 | CCc1nc2ccccc2n1CC(O)COc1cc(C)ccc1Cl (centres unmarked) [MMV676449] | 1.5% | 3.5% | 4.5% | 6% | –
7 | CCOC(=O)c1cc(-c2csc(Nc3c(C)cc(C)cc3C)n2)on1 [MMV676461] | 6% | 15% | -2.6% | 4% | –
8 | NC(CC(=O)c1ccc(Cl)cc1Cl)C(Cl)(Cl)Cl (centres unmarked) [MMV676468] | – | – | – | – | TbrCatL 0’ Inhibition (TbrCatL; 0’ (pre-incubation time)): -5%; TbrCatL 10’ Inhibition (TbrCatL; 10’ (pre-incubation time)): -2%; Cruzain 0’ Inhibition (cruzain; 0’ (pre-incubation time)): 2.5%; Cruzain 10’ Inhibition (cruzain; 10’ (pre-incubation time)): 0.4%
9 | CCOc1ccc(OCC(=O)Nc2cc(C)cc(C)c2)cc1 [MMV676470] | – | – | – | – | TbrCatL 0’ Inhibition (TbrCatL; 0’ (pre-incubation time)): -0.9%; TbrCatL 10’ Inhibition (TbrCatL; 10’ (pre-incubation time)): 4%; Cruzain 0’ Inhibition (cruzain; 0’ (pre-incubation time)): 6%; Cruzain 10’ Inhibition (cruzain; 10’ (pre-incubation time)): 9%
10 | COc1cccc(OC)c1C(=O)Nc1ccc(Cl)c(-c2nc3ccccc3s2)c1 [MMV676472] | – | – | – | – | TbrCatL 0’ Inhibition (TbrCatL; 0’ (pre-incubation time)): 4%; TbrCatL 10’ Inhibition (TbrCatL; 10’ (pre-incubation time)): -2%; Cruzain 0’ Inhibition (cruzain; 0’ (pre-incubation time)): 8%; Cruzain 10’ Inhibition (cruzain; 10’ (pre-incubation time)): 14%
11 | COc1ccccc1OCCCCn1c(C2CC2)nc2ccccc21 [MMV676474] | -3.8% | -17% | -7% | -11% | –
12 | Cc1cc(C)cc(COc2ccc3c(C)c(CCC(=O)O)c(=O)oc3c2C)c1 [MMV676476] | -17% | -2.6% | 1.9% | -3.3% | –
13 | CCc1c(C)nc(-n2nc(C)cc2NC(=O)c2ccccc2SC)[nH]c1=O [MMV676477] | -4% | -17% | -0.2% | -11% | –
14 | O=C(C1CCN(c2nnc(-n3cccc3)s2)CC1)N1CCC(Cc2ccccc2)CC1 [MMV676478] | – | – | – | – | TbrCatL 0’ Inhibition (TbrCatL; 0’ (pre-incubation time)): 2.2%; TbrCatL 10’ Inhibition (TbrCatL; 10’ (pre-incubation time)): -8%; Cruzain 0’ Inhibition (cruzain; 0’ (pre-incubation time)): 0.9%; Cruzain 10’ Inhibition (cruzain; 10’ (pre-incubation time)): 2.5%
15 | COC(=O)c1c(NC(=O)c2cc3ccccc3oc2=O)sc2c1CCN(Cc1ccccc1)C2 [MMV676480] | 0.5% | -3.2% | 24% | 5.6% | –
16 | O=C(Nc1n[nH]c(=S)s1)c1cc(Br)ccc1Cl [MMV676492] | – | – | – | – | TbrCatL Inhibition 0’ (TbrCatL; [3]): -16%; TbrCatL Inhibition 10’ (TbrCatL; [4]): 35%; Cruzain Inhibition 0’ (cruzain; [3]): 10%; Cruzain Inhibition 10’ (cruzain; [4]): 27%
17 | O=C(Nc1nnc(-c2ccc(Cl)s2)o1)c1ccc(Cl)s1 [MMV676501] | -3.6% | -11% | -8% | -16% | –
18 | Cc1ccc2oc(-c3cc(NC(=O)Cc4ccccc4)ccc3Cl)nc2c1 [MMV676509] | 11% | 12% | 21% | 5% | –
19 | O=C(Nc1nc(-c2ccccn2)cs1)c1cncn1-c1ccccc1 [MMV676512] | -27% | -109% | -27% | -84% | Increase in the initial velocity of the reaction (%) 5 µM using PB samples TbrCatL (TbrCatL; [5]): 109 ± 71%; Increase in initial velocity of substrate cleavage in comparison to the DMSO control (TbrCatL; TbrCatL 10′ inc, screening at 5 µM): 2 fold; Increase in the initial velocity of the reaction (%) 5 µM using PB samples Cruzain (cruzain; [5]): 84 ± 54%; Increase in the initial velocity of the reaction (%) 5 µM using solid samples Cruzain (cruzain; 5 µM, solid samples, 10 min pre-incubation, vs DMSO control): 14 ± 9%; Increase in the initial velocity of the reaction (%) 100 µM using solid samples Cruzain (cruzain; 100 µM, solid samples, 10 min pre-incubation, vs DMSO control): 24 ± 5%; Increase in the enzyme velocity in confirmatory assays (cruzain; solid samples, varying compound concentrations): no increase in the enzyme velocity
20 | O=C(c1cc2ccccc2o1)N1CCN(Cc2ccc3c(c2)OCO3)CC1 [MMV676520] | 5% | -4.7% | -1.2% | -3.3% | –
